Reference: patent US10750762B2, “Bio-based N-acetyl-L-methionine and use thereof” (CJ Cheiljedang Corporation, priority 2015, dated 2020)
Where two headings read alike, the source gives them in different places.

Legend:
[1] = system: extracts of bovine small intestine; type: in vitro ADME; details: Korean native cattle, 24 h
Protocol: The small intestine (40 m) of Korean native cattle (record number: KOR005078680400), slaughtered in Bucheon livestock products market of National Agricultural Cooperative Federation, was purchased. After slicing the small intestine to around 1 m, 20 mM sodium phosphate buffer (pH 7.4, 5 mL) was added in the sliced small intestine. Thereafter, while holding each ends of the small intestine, the small intestine was repeatedly waggled to help most of enzymes in the small intestine to be dissolved by the sodium phosphate buffer. […]
(§1) In order to remove protein in the sample which the reaction was over, perchloric acid (0.5%) was added therein and diluted 10-fold. Thereafter, the N-acetyl-L-methionine and L-methionine existing in the supernatant, which is separated by centrifugation at 14,000 for 10 minutes, were quantitatively analyzed (HPLC). Conversion rate (%) was calculated by comparing the molar concentrations (mM) between the N-acetyl-L-methionine prior to the reaction and the L-methionine after the reaction, in terms of the percentage (%) (the molecular weight of the N-acetyl-L-methionine: […]; and the molecular weight of the L-methionine: […]). […]

extracts of bovine liver = assay: Digestive degradation by extracts of liver; type: in vitro ADME; details: Korean native cattle, 24 h
Protocol: The liver of Korean native cattle (record number: KOR005078680400), slaughtered in Bucheon livestock products market of National Agricultural Cooperative Federation, was purchased. After mixing liver tissues (0.125 g) with 20 mM sodium phosphate buffer (pH 7.4, 1 mL), glass beads (Sigma G1145) were filled in about 1/10 of a tube (2 mL). The cell tissues were disrupted using a beadbeater (MP™ FastPrep) for three times with each 20 seconds, and the resultant was centrifuged at 4° C. at 14,000 rpm for 10 minutes to obtain supernatants.
To confirmed the enzymatic activity of the extracts obtained from small intestine and liver, acylase I (sigma A3010) extracted from pig kidney was used. […]
as §1

ruminal microflora = details: male, Holstein, cattle, 2 mg/mL
Protocol: One Holstein steer (weighing around 630 kg to 650 kg) equipped with ruminal cannula was provided for an experimental purpose, and the Holstein steer was bred by feeding the commercial feed (Milkgen™, CJ CheilJedang) and rice straws twice a day (7:30 a.m., 3:[…].).
The collection of ruminal fluid was carried out at 10 a.m. on the experimental day. Contents in the rumen were removed through a cannula, and gastric fluid was extracted with gauze by squeezing the same. Thereafter, the extracted gastric fluid was placed in a vacuum flask, and bubbled with CO2. The vacuum flak containing the gastric fluid was then carried to a laboratory while blocking a penetration of oxygen. It took less than an hour to carry the ruminal fluid to the laboratory.
The ruminal fluid carried to the laboratory was filtered with two layers of gauze, and then it was used as anaerobic culture medium by mixing the same with a biomimetic solution of McDougall's buffer (Troelsen and Donna, 1966), which is commonly used in the in vitro rumen bypass test, in a ratio of 1:3.
A feed used in the experiment was the commercial feed (Milkgen™), a feed substantially used for cattle breeding, and the feed was also used as a basal diet. Further, the experimental samples were prepared by mixing the basal diet with a test material. The test material used in this experiment was N-acetyl-L-methionine, and this was used as an experimental group 1. The experimental group 1 was compared with the control group 1 composed of only the basal diet without the test material, and also compared with the control group 2 composed of the test material, L-methionine. The culture was carried out with three replications for each experimental group.
The basal diet and test material were mixed in a ratio of 4:1 (basic diet (0.4 g), test material (0.1 g); but only 0.5 g of basic diet in control group 1). The culture initiated when the mixed test material (0.5 g) was added in a culture bottle (125 mL), and then mixed it with the prepared anaerobic culture medium (50 mL), and placed in 40° C. incubator upon sealing of the same.
O2 free CO2 was sprayed during the entire process including dilution of the ruminal fluid until the initiation of the culture, so that the ruminal fluid was not exposed to oxygen. Therefore, the anaerobic condition was maintained.
The culture was finally carried out for 48 hours, and sampling of the culture medium was carried out a total of four times (0 h, 24 h, 36 h, 48 h) upon the initiation of the culture. At each sampling, the sample placed in the 40° C. incubator was moved from the incubator and opened its lid. Thereafter, a supernatant was obtained by centrifuging the culture medium at 4000 rpm for 10 minutes, and then the amount of the test material present in the supernatant was measured.
The bypass rate (%) is represented as a residual amount (%) at time-points of 24 hours, 36 hours, and 48 hours, based on the amount of a test material at the time-point of 0 hour (100%).

[2] = Milk production and composition on feeding N-acetyl-L-methionine; type: in vivo, dairy cows
Protocol: Based on the in vitro evaluation, the N-acetyl-L-methionine, for which high digestive degradation rate in the small intestine and bypass rate in the rumen had been observed, was subjected to verify its efficiency through a substantial evaluation with dairy cows. In order for this, the cows were divided into two separated groups, and the change in milk composition depending on presence or absence of the N-acetyl-L-methionine was analyzed during the evaluation. For this, eight dairy cows were divided into two groups so that each group consists of four cows, respectively. Additionally, the N-acetyl-L-methionine was added to the feed composition (Table 12) which are fed by the four cows in one group (30 g of N-acetyl-L-methionine by each cow per a day), and it was carried out for 84 days. • Group 1: Non-addition of N-acetyl-L-methionine • Group 2: Addition of N-acetyl-L-methionine

[3] = Weight gain effect on feeding N-acetyl-L-methionine; type: in vivo, beef steers
Excerpt: The weight gain effect of beef steers was verified through feeding N-acetyl-L-methionine. For the verification, 24 beef steers were divided into two groups so that each group consisted of 12 beef steers. […] In the group with the addition of N-acetyl-L-methionine, each beef steer was fed with the N-acetyl-L-methionine (30 g) per a day.

[4] = 30 g per cow per day in feed, 84 days
[5] = 30 g per steer per day, 90 days

Which “L-methionine (mM) after the reaction” value [1] does the source give for `CSCCC(NC(C)=O)C(=O)O` (racemic) [N-acetyl-D,L-methionine, reference compound] here?
The value was 5.82 mM.

And the “L-methionine (mM) after the reaction” value (extracts of bovine liver)?
Its value is 6.36 mM.

With `CSCC[C@H](N)C(=O)O` [L-methionine] as the molecule, how does the “Rate of rumen bypass (%), Average” value (ruminal microflora; 0 h) read?
Its value is 100%.

And the “Rate of rumen bypass (%), replicate 1” value (ruminal microflora; 0 h)?
The value was 100%.

What about the “Rate of rumen bypass (%), replicate 2” value (ruminal microflora; 0 h) of the same molecule?
Its value is 100%.

And the “Rate of rumen bypass (%), replicate 3” value (ruminal microflora; 0 h)?
The value was 100%.

What about the “Rate of rumen bypass (%), Average” value (ruminal microflora; 24 h) of the same molecule?
The value was 58.8%.

And the “Rate of rumen bypass (%), replicate 1” value (ruminal microflora; 24 h)?
Its value is 51.2%.

What about the “Rate of rumen bypass (%), replicate 2” value (ruminal microflora; 24 h) of the same molecule?
Its value is 62.6%.

What about the “Rate of rumen bypass (%), replicate 3” value (ruminal microflora; 24 h) of the same molecule?
Its value is 62.7%.

And the “Rate of rumen bypass (%), Average” value (ruminal microflora; 36 h)?
Its value is 36.0%.

What about the “Rate of rumen bypass (%), replicate 1” value (ruminal microflora; 36 h) of the same molecule?
Its value is 29.4%.

What about the “Rate of rumen bypass (%), replicate 2” value (ruminal microflora; 36 h) of the same molecule?
The value was 42.3%.

What about the “Rate of rumen bypass (%), replicate 3” value (ruminal microflora; 36 h) of the same molecule?
Its value is 36.2%.

And the “Rate of rumen bypass (%), Average” value (ruminal microflora; 48 h)?
Its value is 1.5%.

What about the “Rate of rumen bypass (%), replicate 1” value (ruminal microflora; 48 h) of the same molecule?
Its value is 1.9%.

And the “Rate of rumen bypass (%), replicate 2” value (ruminal microflora; 48 h)?
Its value is 1.5%.

What about the “Rate of rumen bypass (%), replicate 3” value (ruminal microflora; 48 h) of the same molecule?
Its value is 0.9%.

Which “Rate of rumen bypass (%), Average” value (ruminal microflora; 0 h) does the source give for `CSCC[C@H](NC(C)=O)C(=O)O` [N-acetyl-L-methionine] here?
The value was 100%.

And the “Rate of rumen bypass (%), replicate 1” value (ruminal microflora; 0 h)?
Its value is 100%.

And the “Rate of rumen bypass (%), replicate 2” value (ruminal microflora; 0 h)?
Its value is 100%.

And the “Rate of rumen bypass (%), replicate 3” value (ruminal microflora; 0 h)?
The value was 100%.

What about the “Rate of rumen bypass (%), Average” value (ruminal microflora; 24 h) of the same molecule?
Its value is 89.1%.

And the “Rate of rumen bypass (%), replicate 1” value (ruminal microflora; 24 h)?
Its value is 87.5%.

What about the “Rate of rumen bypass (%), replicate 2” value (ruminal microflora; 24 h) of the same molecule?
Its value is 90.5%.

And the “Rate of rumen bypass (%), replicate 3” value (ruminal microflora; 24 h)?
Its value is 89.4%.

And the “Rate of rumen bypass (%), Average” value (ruminal microflora; 36 h)?
The value was 76.2%.

What about the “Rate of rumen bypass (%), replicate 1” value (ruminal microflora; 36 h) of the same molecule?
The value was 72.5%.

What about the “Rate of rumen bypass (%), replicate 2” value (ruminal microflora; 36 h) of the same molecule?
The value was 80.1%.

And the “Rate of rumen bypass (%), replicate 3” value (ruminal microflora; 36 h)?
The value was 76.0%.

What about the “Rate of rumen bypass (%), Average” value (ruminal microflora; 48 h) of the same molecule?
The value was 55.4%.

What about the “Rate of rumen bypass (%), replicate 1” value (ruminal microflora; 48 h) of the same molecule?
The value was 52.6%.

And the “Rate of rumen bypass (%), replicate 2” value (ruminal microflora; 48 h)?
The value was 57.2%.

What about the “Rate of rumen bypass (%), replicate 3” value (ruminal microflora; 48 h) of the same molecule?
The value was 56.5%.

And the “L-methionine (mM) after the reaction” value [1]?
The value was 10.9 mM.

What about the “Amount of production, 3.5% FCM (Fat-corrected milk)” value [2, 4] of the same molecule?
Its value is 43.4 kg/day.

And the “Amount of production, ECM (Energy-corrected milk)” value [2, 4]?
Its value is 42.9 kg/day.

And the “Feed efficiency, 3.5% FCM yield/DMI” value [2, 4]?
The value was 1.72.

What about the “Feed efficiency, ECM yield/DMI” value [2, 4] of the same molecule?
The value was 1.70.

What about the “Feed efficiency, Milk production/Feed intake (Milk yield/DMI)” value [2, 4] of the same molecule?
Its value is 1.66.

What about the “Production of milk ingredients, Milk fat” value [2, 4] of the same molecule?
Its value is 1.56 kg/day.

And the “Production of milk ingredients, Milk protein” value [2, 4]?
The value was 1.18 kg/day.

And the “Rate of milk ingredients, Milk fat” value [2, 4]?
The value was 3.70%.

What about the “Rate of milk ingredients, Milk protein” value [2, 4] of the same molecule?
The value was 2.83%.

What about the “3.5% FCM production, rate of increase (%)” value ([2]; vs non-addition group) of the same molecule?
Its value is 7.4%.

And the “ECM production, rate of increase (%)” value ([2]; vs non-addition group)?
Its value is 6.7%.

And the “Feed efficiency 3.5% FCM yield/DMI, rate of increase (%)” value ([2]; vs non-addition group)?
The value was 9.6%.

And the “Feed efficiency ECM yield/DMI, rate of increase (%)” value ([2]; vs non-addition group)?
The value was 8.3%.

And the “Feed efficiency Milk yield/DMI, rate of increase (%)” value ([2]; vs non-addition group)?
The value was 3.1%.

And the “Production of milk ingredients, Milk fat, rate of increase (%)” value ([2]; vs non-addition group)?
The value was 12.2%.

And the “Production of milk ingredients, Milk protein, rate of increase (%)” value ([2]; vs non-addition group)?
Its value is 3.5%.

And the “Rate of milk ingredients, Milk fat, rate of increase (%)” value ([2]; vs non-addition group)?
Its value is 10.8%.

What about the “Rate of milk ingredients, Milk protein, rate of increase (%)” value ([2]; vs non-addition group) of the same molecule?
The value was 1.8%.

And the “Average daily weight gain” value [3, 5]?
The value was 1.48 kg/day.

What about the “Weight of beef steer, 3 months after feeding” value [3, 5] of the same molecule?
Its value is 382.1 kg.

And the additional weight gain ([3]; in comparison with one without the N-acetyl-L-methionine, 90 days)?
The additional weight gain was 16.5 kg.

What about the “Weight gain, rate of increase (%)” value ([3]; vs non-addition group) of the same molecule?
The value was 14.2%.
